Test results: US8859503B2, “Methods and compositions targeting viral and cellular ITAM motifs, and use of same in identifying compounds with therapeutic activity” (priority 2005, dated 2014)
“Also recorded” adds a separate entry of the source. Ends that are not written are not given here. * marks the point of attachment. Biotin = O=C1N[C@H]2[C@H](CS[C@H]2CCCCC(=O)*)N1

What was measured:
[1] = test system: Env-expressing NMuMG cells; assay: Three-dimensional Matrigel cultures of MMTV Env-expressing NMuMG cells (acinar structure morphology/size); type: cell-based, murine
Procedure: NMuMG cells (5×10^3 cells per chamber) were cultured on Matrigel® (BD Biosciences) cushions. Assay medium (DMEM/F12 supplemented with 2% donor horse serum, 10 μg/ml insulin, 1 ng/ml cholera toxin, 100 μg/ml hydrocortisone, 50 U/ml penicillin, and 50 μg/ml streptomycin) containing 2% Matrigel was replaced every 4 days. The structures were analyzed, at a magnification of 20, on a Zeiss Axiovert 200M equipped with PCO SensiCam video camera and Slidebook® software (Intelligent Imaging Innovations). Cell staining was performed with rat anti-human Keratin-18 (Lab Vision), rat anti-human E-cadherin and goat anti-rat IgG-FITC conjugated antibodies (Jackson ImmunoResearch Laboratories), or goat anti-rat IgG-Alexa-555 conjugated antibodies (Molecular Probes). Quantification of structure size was performed using a 10×50-μm grid reticule (Fisher Scientific) and 20-100 structures were counted from each chamber. The inhibitors PP2 and Piceatannol (EMD) were added on day 3 of culture, and pictures were taken on day 6. In apoptosis assays, TNF (R&D Systems) or TRAIL (BIOMOL Research Laboratories, Inc) were added on day 5 of culture, and pictures were taken on day 6. TUNEL assay was performed using a kit from Roche Applied Science (Indianapolis, Ind.).
(§1) NmuMG (wild-type or Env-expressing) or Mm5MT cells (10^4) were incubated on Matrigel (BD Labware) for six days, as described previously. Cells were treated with or without ITAM peptide (10 μM) or the Syk inhibitors piceatannol (1 μg/ml) and SI-31 (100 nM) (EMD). The acinar structures were analyzed and captured, at a magnification of 20×, on a Zeiss Axiovert 200M equipped with PCO SensiCam video camera and Slidebook v4 software (Intelligent Imaging Innovations). Three-dimensional structures >50 μm were considered enlarged. Data shown is based on size of 50 random acini.

Mm5MT cells = assay: Three-dimensional Matrigel cultures of MMTV+ Mm5MT tumor cells; type: cell-based; conditions: for reversion to round 3D phenotype: six days
Procedure: as §1, with “Cells were treated with or without ITAM peptide (10 μM) or the Syk inhibitors piceatannol (1 μg/ml) and SI-31 (100 nM) (EMD).” left out

[2] = Water solubility of the ITAM fragment; type: physicochemical
[3] = test system: ITAM-based BCR signaling (tyrosine phosphorylation) in splenic B cells; assay: Western blotting for tyrosine phosphorylation after anti-BCR stimulation; type: cell-based, mouse
Procedure: Splenic B cells (10^7) were pre-incubated with 0-100 μM ITAM peptide for 3 h at 37° C. and then stimulated with anti-BCR antibodies as above for further 5 min. Lysates (20 μg/lane) were run on SDS-PAGE, blotted and detected with anti-phosphotyrosine antibody (4G10-HRP; Upstate Biotech). Molecular weights shown are based on the molecular weight markers.

mouse splenic B cells = assay: B lymphocyte stimulation and proliferation ([3H] thymidine incorporation); type: cell-based; conditions: 20 μM peptide
Procedure: Proliferation of mouse splenic B cells: cells (5×10^5) were incubated for 48 h in the presence or absence of 20 μM peptide and stimulated with 10 μg/ml anti-BCR antibodies (Jackson ImmunoResearch Laboratories), LPS (Sigma) or anti-CD40 antibodies (BD Pharmingen). [^3H] Thymidine incorporation (1 μCi/well) was measured in the last 4 h of the experiment.

RBL-2H3 cells = assay: FcεR1-mediated degranulation of RBL-2H3 cells (hexosaminidase activity); type: cell-based; conditions: ITAM peptide 25 μM; anti-DNP IgE 1 μg/ml, DNP-HSA 10 ng/ml
Procedure: The effect of ITAM peptide on mast cell function was evaluated by degranulation induced by FcεR1 cross-linking. RBL-2H3 cells (5×10^4) were incubated overnight with anti-DNP IgE (1 μg/ml). Subsequently, degranulation was induced with DNP-HSA (10 ng/ml, 2 h), in the presence or absence of ITAM peptide (25 μM). Degranulation, as detected by hexosaminidase activity, is depicted as percent of maximal activity obtained from whole cell lysates.

[4] = test system: NIH3T3 cells expressing the ITAM-containing MAHB chimera; assay: Soft agar colony formation assay of NIH3T3 cells expressing the ITAM-containing MAHB chimera; type: cell-based, murine
Procedure: NIH3T3 cells expressing the ITAM-containing MAHB chimera (1×10^4) were suspended in 0.3% agar in DMEM containing 10% FBS. Cells from each transduction group were plated in 6-well plates pre-coated with 0.6% agar base in DMEM containing 10% FBS. Cells were fed with fresh top agar (0.3% agar in DMEM with 10% FBS, with or without ITAM peptide) every 5 days. Colonies were counted and measured using a graduated reticule under microscope at 10× magnification on day 21.

Syk = biological target: T1, Syk (Mus musculus, UniProt P48025); assay: Peptide:Syk binding assay (biotin-peptide pull-down from Bal-17 B cell lysates); conditions: peptide 50 μM; Bal-17 whole cell lysates; n=3
T1 construct: Whole cell lyastes of Bal-17 B cells (3×10^7) were used; endogenous in cells; host or cells: Bal-17 B cells (whole cell lysate)
T1 sequence (P48025 whole entry): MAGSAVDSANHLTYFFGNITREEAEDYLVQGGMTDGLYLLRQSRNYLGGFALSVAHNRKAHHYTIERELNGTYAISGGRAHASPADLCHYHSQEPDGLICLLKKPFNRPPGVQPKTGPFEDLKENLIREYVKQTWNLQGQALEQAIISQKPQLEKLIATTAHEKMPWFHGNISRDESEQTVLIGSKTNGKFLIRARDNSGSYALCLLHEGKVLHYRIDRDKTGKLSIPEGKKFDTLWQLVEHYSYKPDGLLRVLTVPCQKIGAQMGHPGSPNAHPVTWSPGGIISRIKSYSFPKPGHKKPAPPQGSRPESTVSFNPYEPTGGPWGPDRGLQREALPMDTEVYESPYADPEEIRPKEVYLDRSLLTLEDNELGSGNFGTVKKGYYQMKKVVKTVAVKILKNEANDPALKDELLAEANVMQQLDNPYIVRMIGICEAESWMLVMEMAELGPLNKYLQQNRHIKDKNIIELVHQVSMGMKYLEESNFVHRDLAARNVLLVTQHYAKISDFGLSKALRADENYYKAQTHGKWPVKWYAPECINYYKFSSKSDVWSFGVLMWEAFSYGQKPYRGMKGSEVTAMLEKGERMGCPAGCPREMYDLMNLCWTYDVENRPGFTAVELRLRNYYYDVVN
Procedure: Whole cell lyastes of Bal-17 B cells (3×10^7) were used for quantification of ITAM peptide interactions. Equivalent cell lysates were mixed with either biotin-KRPPAVLL (control peptide; SEQ ID No 46) or biotin-KRPPYVLL (ITAM peptide; SEQ ID No 47) in concentration between 10-50 μM. Pull-downs were performed with Immobilized Neutravidin Protein (Pierce), as previously described. The resulting lysate pull-downs were run on SDS-PAGE were detected by Western blotting with rabbit anti-Syk antibody (N-19, Santa Cruz). Donkey anti-rabbit IgG-alkaline phosphatase conjugated antibody was used as a secondary antibody (Jackson ImmunoResearch Laboratories). For development and quantification, an ECF substrate was used followed by a scan using Storm 860 and analysis by ImageQuant 5.2 (all obtained from Amersham Biosciences).

Syk-GFP = biological target: T2, Syk-GFP (Mus musculus, UniProt P48025); assay: Co-localization of dsRed peptide chimeras with Syk-GFP in 293T cells by confocal microscopy; type: cell-based; conditions: transiently transfected human 293T cells
T2 construct: host or cells: Human 293T cells, transient transfection
T2 sequence (P48025 whole entry): as above
From the text: Peptide conjugates were produced by QuikChange XL® kit from Stratagene. The dsRed2-C1 construct (BD Clontech) was modified using the following primers: dsRed.YVLL: 5′-[…]-3′ (SEQ ID No 42); and 5′-[…]-3 (SEQ ID No 43).
dsRed.KRPPYVLL: 5′-[…]-3′ (SEQ ID No 44); and 5′-[…]-3′ (SEQ ID No 45). The Syk-eGFP construct was a provided by Dr. Robert Geahlen (Purdue University).
For laser scanning microscopy a Zeiss LSM510 META laser scanning confocal module on a Zeiss Axiovert 200M inverted microscope was used. Objective used: C-APO 40×/1.2 water DIC. Lasers: 488 nm laser line from Argon laser (30 mW) for eGFP excitation; 543 nm laser line from HeNe laser (1 mW) for dsRed excitation. Analysis was performed on Zeiss LSM510 META v3.2 software.

Compound: CC(C)(C)n1nc(-c2ccc(Cl)cc2)c2c(N)ncnc21 [PP2]
- morphological changes associated with Env transformation ([1]; Env+ NMuMG 3D cultures, inhibitor 500 ng/ml added on day 3, imaged on day 6): sufficient to block morphological changes associated with Env transformation
- phenotypic reversal of transformed phenotype to normal round acini ([1]; Src inhibitor PP2, concentration not printed for this experiment): effective in phenotypic reversal

Compound: Cn1cc(C=C2C(=O)Nc3ccc(S(N)(=O)=O)cc32)c2ccccc21 [SI-31, reference compound]
- reversion to round 3D phenotype (Mm5MT cells; SI-31 100 nM): readily apparent
- phenotypic reversal of transformed phenotype to normal round acini ([1]; SI-31 100 nM, six days): effective in phenotypic reversal

Compound: Ac-KRPPYVLL [KRPPYVLL]
- water solubility [2]: water-soluble

Compound: Ac-KRPPYVLL-OH [ITAM peptide]
- tyrosine phosphorylation associated with ITAM-based BCR signaling ([3]; higher concentrations of the peptide): neither stimulatory nor inhibitory
- tyrosine phosphorylation associated with ITAM-based BCR signaling ([3]; relevant peptide concentrations (0-100 μM tested), 3 h pre-incubation, anti-BCR 5 min, data not shown): visibly reduced; also recorded: Inhibition of tyrosine phosphorylation was confirmed
- Mm5MT acini phenotype (Mm5MT cells; 3D cultures on Matrigel six days, treated with ITAM peptide, Src or Syk inhibitors): exhibited a more round phenotype
- reversion to round 3D phenotype (Mm5MT cells; ITAM peptide 20 μM (5-20 μM tested)): readily apparent
- BCR-induced proliferation ([3H] thymidine incorporation) (mouse splenic B cells; 48 h, 10 μg/ml anti-BCR antibodies): inhibition of BCR-induced proliferation; also recorded: highly significant (p=0.0017)
- stimulation of B lymphocytes by LPS (non-ITAM) (mouse splenic B cells; LPS 20 μg/ml, data not shown): no significant effect
- stimulation of B lymphocytes through CD40 (non-ITAM) (mouse splenic B cells; anti-CD40 5 μg/ml, data not shown): no significant effect
- FcεRI-induced degranulation (hexosaminidase activity) (RBL-2H3 cells): significantly inhibited; also recorded: significant reduction (p=0.093)
- size and number of colonies formed ([4]; ITAM peptide 0-20 μM added with feeding media, colonies >75 μm scored on day 21): reduction in both size and number of colonies formed
- colony formation of ITAM+ fibroblasts ([4]; chronic treatment with ITAM peptide in feeding media): sufficient to reduce colony formation
- phenotypic reversal of transformed phenotype to normal round acini ([1]; ITAM peptide 10 μM, Env-expressing NMuMG on Matrigel six days): as effective in phenotypic reversal as the Src inhibitor PP2 and Syk inhibitors Piceatannol and SI-31

Compound: Biotin-KRPPYVLL
- Syk detected in pull-down, over control peptide biotin-KRPPAVLL (Syk): 1.5- to 2 fold

Compound: dsRed.KRPPYVLL: dsRed chimera protein with the entire 8 amino acid ITAM fragment (dsRed-KRPPYVLL)
- co-localization with Syk-GFP (Syk-GFP): co-localization was still detected

Compound: dsRed.YVLL: dsRed chimera protein with 4 amino acids (YVLL) of the ITAM fragment (dsRed-YVLL)
- co-localization with Syk-GFP (Syk-GFP): co-localization was readily observed
